Measurements: ChEMBL document CHEMBL5696439 (Cancer Res, 2010)
Calls of active or inactive are those of the source. No cut-off for these calls is given here.

Assays:
[1] = system: Fibroblast growth factor receptor 3 (Homo sapiens), P22607 [K650E]; assay: Inhibition of recombinant human His-tagged FGFR3 FGFR3 K650E mutant (398-806 residues) expressed in baculovirus expression system at 2 uM using Tyr 04 as substrate measured after 1 hr by Z'-LYTE assay relative to control
[2] = target: Receptor tyrosine-protein kinase erbB-4 (Homo sapiens) (UniProt Q15303); assay: Inhibition of recombinant human GST-tagged ERBB4 (708-993 residues) expressed in insect cells at 2 uM using Tyr 01 as substrate measured after 1 hr by Z'-LYTE assay relative to control; settings: Insect cell
A549 = assay: Antitumor activity against human A549 cells xenografted in female nude mouse model assessed as suppression in tumor growth at 10 mg/kg, po qd administered as 5 days on/2 days off regimen for 4 cycles; format: functional, organism-based; settings: time 28.0 day
[3] = system: Mast/stem cell growth factor receptor Kit (Homo sapiens), P10721 [T670I]; assay: Inhibition of recombinant human His-tagged KIT T670I mutant (544-976 residues) expressed in insect cells at 2 uM using […] as substrate measured after 1 hr by Z'-LYTE assay relative to control
[4] = target: Casein kinase I isoform gamma-2 (Homo sapiens) (UniProt P78368); assay: Inhibition of recombinant human full-length His-tagged CSNK1G2 expressed in baculovirus expression system at 2 uM using Ser/Thr 05 as substrate measured after 1 hr by Z'-LYTE assay relative to control
[5] = target: Serine/threonine-protein kinase PLK1 (Homo sapiens) (UniProt P53350); assay: Inhibition of recombinant human full length His-tagged PLK1 expressed in insect cells at 2 uM using Ser/Thr 16 as substrate measured after 1 hr by Z'-LYTE assay relative to control; settings: Insect cell
[6] = target: Ribosomal protein S6 kinase alpha-2 (Homo sapiens) (UniProt Q15349); assay: Inhibition of recombinant human full length GST-tagged RPS6KA2 expressed in insect cells at 2 uM using Ser/Thr 06 as substrate measured after 1 hr by Z'-LYTE assay relative to control; settings: Insect cell
[7] = target: Serine/threonine-protein kinase Sgk1 (Homo sapiens) (UniProt O00141); assay: Inhibition of recombinant human GST-tagged SGK (60-431 residues) expressed in insect cells at 2 uM using Ser/Thr 06 as substrate measured after 1 hr by Z'-LYTE assay relative to control; settings: Insect cell
BT-549 = assay: Antiproliferative activity against human BT-549 cells assessed as cell growth inhibition incubated for 24 hrs by MTS assay; format: functional, cell-based; settings: BT-549, 24 h
[8] = target: Fibroblast growth factor receptor 2 (Homo sapiens) (UniProt P21802); assay: Inhibition of recombinant human His-tagged FGFR2 (403-822 residues) expressed in baculovirus expression system at 2 uM using Tyr 04 as substrate measured after 1 hr by Z'-LYTE assay relative to control
[9] = target: Beta-adrenergic receptor kinase 1 (Homo sapiens) (UniProt P25098); assay: Inhibition of recombinant human full-length His-tagged ADRBK1 expressed in insect cells at 2 uM using Ser/Thr 16 as substrate measured after 1 hr by Z'-LYTE assay relative to control; settings: Insect cell
[10] = target: Serine/threonine-protein kinase SMG1 (Homo sapiens, UniProt Q96Q15); assay: Inhibition of human SMG1 using glutathione S-transferase-p53 as substrate by DELFIA
[11] = target: Ephrin type-A receptor 8 (Homo sapiens) (UniProt P29322); assay: Inhibition of recombinant human GST-tagged EPHA8 (565-1005 residues) expressed in insect cells at 2 uM using Tyr 02 as substrate measured after 1 hr by Z'-LYTE assay relative to control; settings: Insect cell
[12] = target: Angiopoietin-1 receptor (Homo sapiens) (UniProt Q02763); assay: Inhibition of recombinant human GST-tagged TEK (817-1101 residues) expressed in insect cells at 2 uM using […] as substrate measured after 1 hr by Z'-LYTE assay relative to control; settings: Insect cell
[13] = target: Ephrin type-A receptor 4 (Homo sapiens) (UniProt P54764); assay: Inhibition of recombinant human GST-tagged EPHA4 (616-887 residues) expressed in insect cells at 2 uM using Tyr 02 as substrate measured after 1 hr by Z'-LYTE assay relative to control; settings: Insect cell
mTORC2 (Homo sapiens) = mTORC2 (Homo sapiens) (UniProt P42345+Q6R327+Q9BVC4+Q9BPZ7); settings: PC3MM2, dose 0.1-1 µM, time 6.0 hrs
HCT-116 = assay: Antitumor activity against human HCT-116 cells xenografted in female nude mouse model assessed as reduction in P-AKT at T308 level at 50 mg/kg, iv administered once a week and measured at least 8 hrs by immunoblot analysis; format: functional, organism-based
[14] = system: Tyrosine-protein kinase JAK2 (Homo sapiens), O60674 [V617F]; assay: Inhibition of recombinant human GST-tagged JAK2 JH1 JH2 domains V617F mutant (532-1132 residues) expressed in insect cells at 2 uM using Tyr 06 as substrate measured after 1 hr by Z'-LYTE assay relative to control; settings: Insect cell
[15] = target: Tyrosine-protein kinase CSK (Homo sapiens) (UniProt P41240); assay: Inhibition of recombinant human full-length His-tagged CSK expressed in E. coli at 2 uM using Tyr 02 as substrate measured after 1 hr by Z'-LYTE assay relative to control
MDA-MB-361 [16] = assay: Antiproliferative activity against human MDA-MB-361 cells assessed as cell growth inhibition incubated for 24 hrs by MTS assay; format: functional, cell-based; settings: MDA-MB-361, 24 h
[17] = target: Mitogen-activated protein kinase kinase kinase kinase 2 (Homo sapiens) (UniProt Q12851); assay: Inhibition of recombinant human full-length His-tagged MAP4K2 expressed in insect cells at 2 uM using Ser/Thr 07 as substrate measured after 1 hr by Z'-LYTE assay relative to control; settings: Insect cell
[18] = target: Serine/threonine-protein kinase D3 (Homo sapiens) (UniProt O94806); assay: Inhibition of recombinant human full length GST-tagged PRKCN expressed in insect cells at 2 uM using Ser/Thr 17 as substrate measured after 1 hr by Z'-LYTE assay relative to control; settings: Insect cell
[19] = target: Phosphorylase b kinase gamma catalytic chain, liver/testis isoform (Homo sapiens) (UniProt P15735); assay: Inhibition of recombinant human full length GST-tagged PHKG2 expressed in insect cells at 2 uM using Ser/Thr 07 as substrate measured after 1 hr by Z'-LYTE assay relative to control; settings: Insect cell
MDA-MB-361 [20] = assay: Induction of apoptosis in human MDA-MB-361 cells assessed as increase in G1 phase at 5 micromol/L incubated for 24 hrs by FACS analysis relative to control; format: functional; settings: dose 5 µmol/L, at 5 µM
[21] = target: Serine/threonine-protein kinase MARK1 (Homo sapiens) (UniProt Q9P0L2); assay: Inhibition of recombinant human full length GST-tagged MARK1 expressed in baculovirus expression system at 2 uM using Ser/Thr 21 as substrate measured after 1 hr by Z'-LYTE assay relative to control

Serine/threonine-protein kinase Sgk1 (Homo sapiens), sequence (O00141 whole entry, the tested form may be a part): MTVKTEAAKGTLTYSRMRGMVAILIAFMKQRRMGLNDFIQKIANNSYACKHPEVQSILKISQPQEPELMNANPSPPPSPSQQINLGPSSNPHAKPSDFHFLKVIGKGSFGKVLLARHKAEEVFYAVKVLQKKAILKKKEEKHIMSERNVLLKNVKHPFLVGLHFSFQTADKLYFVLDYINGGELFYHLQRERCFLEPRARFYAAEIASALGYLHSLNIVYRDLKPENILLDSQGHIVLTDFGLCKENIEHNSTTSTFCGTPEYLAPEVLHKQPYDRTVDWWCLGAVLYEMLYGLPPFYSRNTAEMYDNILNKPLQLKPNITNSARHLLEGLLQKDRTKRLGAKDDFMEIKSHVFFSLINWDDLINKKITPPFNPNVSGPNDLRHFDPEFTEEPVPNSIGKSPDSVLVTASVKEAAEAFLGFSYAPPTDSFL
Casein kinase I isoform gamma-2 (Homo sapiens), sequence (P78368 whole entry, looked up, canonical isoform): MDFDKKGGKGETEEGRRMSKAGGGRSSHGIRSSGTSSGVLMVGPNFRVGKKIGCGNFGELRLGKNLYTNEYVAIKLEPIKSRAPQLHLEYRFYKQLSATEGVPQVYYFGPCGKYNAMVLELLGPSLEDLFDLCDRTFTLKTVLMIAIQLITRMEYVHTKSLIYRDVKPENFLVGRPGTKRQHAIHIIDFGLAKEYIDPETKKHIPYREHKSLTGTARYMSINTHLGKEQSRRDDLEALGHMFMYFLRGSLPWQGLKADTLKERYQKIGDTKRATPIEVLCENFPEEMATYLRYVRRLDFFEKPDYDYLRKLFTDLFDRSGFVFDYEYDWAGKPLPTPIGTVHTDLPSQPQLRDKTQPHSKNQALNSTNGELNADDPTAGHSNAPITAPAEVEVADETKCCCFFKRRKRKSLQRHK
Serine/threonine-protein kinase D3 (Homo sapiens), sequence (O94806 whole entry, canonical isoform): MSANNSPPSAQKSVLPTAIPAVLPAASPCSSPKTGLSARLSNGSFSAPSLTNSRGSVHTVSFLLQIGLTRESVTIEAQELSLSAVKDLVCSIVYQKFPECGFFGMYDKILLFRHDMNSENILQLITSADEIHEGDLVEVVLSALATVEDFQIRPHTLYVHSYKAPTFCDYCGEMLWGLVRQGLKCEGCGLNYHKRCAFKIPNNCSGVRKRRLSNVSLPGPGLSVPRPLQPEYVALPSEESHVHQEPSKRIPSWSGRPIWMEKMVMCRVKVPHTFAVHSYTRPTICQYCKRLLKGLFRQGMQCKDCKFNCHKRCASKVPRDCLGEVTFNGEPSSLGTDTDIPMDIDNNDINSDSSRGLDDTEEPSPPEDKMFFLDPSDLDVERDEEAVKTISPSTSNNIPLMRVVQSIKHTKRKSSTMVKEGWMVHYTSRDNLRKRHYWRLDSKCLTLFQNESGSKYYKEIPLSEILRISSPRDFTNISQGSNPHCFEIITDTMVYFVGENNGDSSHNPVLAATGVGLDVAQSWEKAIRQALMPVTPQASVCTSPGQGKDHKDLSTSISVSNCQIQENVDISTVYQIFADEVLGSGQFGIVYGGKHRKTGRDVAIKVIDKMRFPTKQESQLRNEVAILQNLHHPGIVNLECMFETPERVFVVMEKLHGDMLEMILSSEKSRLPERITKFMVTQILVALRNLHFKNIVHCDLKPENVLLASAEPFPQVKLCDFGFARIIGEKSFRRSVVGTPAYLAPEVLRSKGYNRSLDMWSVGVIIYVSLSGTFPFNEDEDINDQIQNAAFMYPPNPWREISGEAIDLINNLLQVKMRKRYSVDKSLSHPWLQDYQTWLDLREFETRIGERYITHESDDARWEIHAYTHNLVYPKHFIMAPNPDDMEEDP
Fibroblast growth factor receptor 2 (Homo sapiens), sequence (P21802 22-821 limits assumed): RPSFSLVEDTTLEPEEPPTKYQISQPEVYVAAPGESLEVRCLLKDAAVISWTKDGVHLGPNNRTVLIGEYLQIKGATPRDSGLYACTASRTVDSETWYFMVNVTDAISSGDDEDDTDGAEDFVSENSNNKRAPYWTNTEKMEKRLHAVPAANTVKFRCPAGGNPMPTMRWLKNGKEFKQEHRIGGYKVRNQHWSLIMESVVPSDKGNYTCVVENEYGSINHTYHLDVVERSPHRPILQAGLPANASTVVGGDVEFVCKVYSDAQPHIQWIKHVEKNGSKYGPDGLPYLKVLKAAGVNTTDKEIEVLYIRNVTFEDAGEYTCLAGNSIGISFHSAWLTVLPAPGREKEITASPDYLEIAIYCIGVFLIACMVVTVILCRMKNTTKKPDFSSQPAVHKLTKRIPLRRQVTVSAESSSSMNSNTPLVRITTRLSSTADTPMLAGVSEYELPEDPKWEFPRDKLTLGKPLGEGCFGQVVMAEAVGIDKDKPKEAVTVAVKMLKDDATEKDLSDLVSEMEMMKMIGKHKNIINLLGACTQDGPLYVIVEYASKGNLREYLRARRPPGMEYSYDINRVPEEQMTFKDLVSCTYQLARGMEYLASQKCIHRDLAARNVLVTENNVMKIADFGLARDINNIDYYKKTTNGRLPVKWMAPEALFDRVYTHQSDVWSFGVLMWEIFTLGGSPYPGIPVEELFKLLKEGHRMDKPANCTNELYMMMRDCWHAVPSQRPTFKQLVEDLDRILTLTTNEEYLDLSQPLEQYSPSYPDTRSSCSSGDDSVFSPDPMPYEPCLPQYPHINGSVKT
Ribosomal protein S6 kinase alpha-2 (Homo sapiens), sequence (Q15349 whole entry, the tested form may be a part): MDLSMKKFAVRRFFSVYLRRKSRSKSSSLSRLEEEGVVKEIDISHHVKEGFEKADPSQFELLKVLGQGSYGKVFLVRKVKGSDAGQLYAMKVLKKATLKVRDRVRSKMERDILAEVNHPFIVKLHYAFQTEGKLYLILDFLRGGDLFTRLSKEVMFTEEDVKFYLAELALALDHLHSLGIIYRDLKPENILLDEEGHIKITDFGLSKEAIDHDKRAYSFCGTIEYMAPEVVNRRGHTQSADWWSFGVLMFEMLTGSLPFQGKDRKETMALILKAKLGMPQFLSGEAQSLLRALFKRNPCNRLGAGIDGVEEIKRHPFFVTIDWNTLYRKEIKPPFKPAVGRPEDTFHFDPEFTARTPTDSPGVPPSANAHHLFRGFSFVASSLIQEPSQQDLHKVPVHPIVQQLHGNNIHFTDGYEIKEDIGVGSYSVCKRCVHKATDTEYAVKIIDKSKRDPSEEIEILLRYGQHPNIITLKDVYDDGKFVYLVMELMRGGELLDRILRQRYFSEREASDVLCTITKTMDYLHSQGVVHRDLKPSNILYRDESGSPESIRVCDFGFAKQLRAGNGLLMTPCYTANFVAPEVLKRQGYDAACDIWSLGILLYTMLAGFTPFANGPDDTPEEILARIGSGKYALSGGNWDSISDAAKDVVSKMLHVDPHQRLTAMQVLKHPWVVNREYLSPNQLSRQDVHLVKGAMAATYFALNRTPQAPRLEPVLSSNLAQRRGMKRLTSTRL
Angiopoietin-1 receptor (Homo sapiens), sequence (Q02763 whole entry, the tested form may be a part): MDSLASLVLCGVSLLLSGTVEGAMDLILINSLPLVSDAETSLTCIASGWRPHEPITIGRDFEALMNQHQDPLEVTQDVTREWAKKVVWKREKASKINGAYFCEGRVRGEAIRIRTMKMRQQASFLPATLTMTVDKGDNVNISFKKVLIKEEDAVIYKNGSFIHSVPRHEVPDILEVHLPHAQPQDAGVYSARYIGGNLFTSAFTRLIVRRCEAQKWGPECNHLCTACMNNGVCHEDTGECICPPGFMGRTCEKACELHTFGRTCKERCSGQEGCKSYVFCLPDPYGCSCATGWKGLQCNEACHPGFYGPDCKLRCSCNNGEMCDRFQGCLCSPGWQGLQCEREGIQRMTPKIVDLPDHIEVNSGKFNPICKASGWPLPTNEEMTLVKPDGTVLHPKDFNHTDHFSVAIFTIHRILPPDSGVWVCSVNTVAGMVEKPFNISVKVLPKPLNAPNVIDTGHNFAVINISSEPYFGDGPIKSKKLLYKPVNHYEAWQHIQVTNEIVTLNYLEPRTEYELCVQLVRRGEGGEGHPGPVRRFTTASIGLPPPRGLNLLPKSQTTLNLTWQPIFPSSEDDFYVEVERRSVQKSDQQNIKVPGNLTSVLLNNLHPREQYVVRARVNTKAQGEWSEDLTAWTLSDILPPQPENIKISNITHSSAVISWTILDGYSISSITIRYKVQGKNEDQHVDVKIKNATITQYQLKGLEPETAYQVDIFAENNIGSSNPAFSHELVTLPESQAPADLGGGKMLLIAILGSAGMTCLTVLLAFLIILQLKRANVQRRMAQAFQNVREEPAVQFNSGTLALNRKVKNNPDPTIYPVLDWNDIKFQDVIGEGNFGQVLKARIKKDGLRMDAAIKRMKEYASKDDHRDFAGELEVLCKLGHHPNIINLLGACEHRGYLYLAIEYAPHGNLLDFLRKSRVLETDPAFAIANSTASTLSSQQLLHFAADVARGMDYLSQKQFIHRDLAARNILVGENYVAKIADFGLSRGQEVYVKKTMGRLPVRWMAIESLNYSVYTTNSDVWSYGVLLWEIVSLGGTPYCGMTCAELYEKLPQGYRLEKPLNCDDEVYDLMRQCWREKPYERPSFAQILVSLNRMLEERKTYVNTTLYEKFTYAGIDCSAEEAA
Tyrosine-protein kinase CSK (Homo sapiens), sequence (P41240 2-450 limits assumed): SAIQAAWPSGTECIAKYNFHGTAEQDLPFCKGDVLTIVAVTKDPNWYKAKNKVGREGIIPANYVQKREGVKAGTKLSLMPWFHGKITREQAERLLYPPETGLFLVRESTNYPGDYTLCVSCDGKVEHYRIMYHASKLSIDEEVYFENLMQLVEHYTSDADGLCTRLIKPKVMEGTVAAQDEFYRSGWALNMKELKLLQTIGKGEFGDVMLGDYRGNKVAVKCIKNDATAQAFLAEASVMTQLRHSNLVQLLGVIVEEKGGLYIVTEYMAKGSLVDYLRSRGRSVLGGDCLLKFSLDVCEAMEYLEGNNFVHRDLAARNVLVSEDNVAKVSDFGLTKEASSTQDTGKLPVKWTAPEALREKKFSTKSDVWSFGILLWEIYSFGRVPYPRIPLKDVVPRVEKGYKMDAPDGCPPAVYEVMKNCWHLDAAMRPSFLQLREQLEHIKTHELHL

## CNC(=O)Nc1ccc(-c2nc(N3CC4CCC(C3)O4)c3cnn(C4CCC5(CC4)OCCO5)c3n2)cc1
[1]
  inhibition: 6%
[2]
  inhibition: 3%
A549
  Activity: Active
[3]
  inhibition: 7%
[4]
  inhibition: -6%
[5]
  inhibition: -4%
[6]
  inhibition: -1%
[7]
  inhibition: -2%
BT-549
  IC50: 37 nM
[8]
  inhibition: 4%
[9]
  inhibition: -1%
[10]
  IC50: 1250 nM
[11]
  inhibition: 24%
[12]
  inhibition: 10%
[13]
  inhibition: -1%
mTORC2 (Homo sapiens)
  inhibition: Active
HCT-116
  Activity: inactive
[14]
  inhibition: 4%
[15]
  inhibition: -1%
MDA-MB-361 [16]
  IC50: 24 nM
[17]
  inhibition: 3%
[18]
  inhibition: 4%
[19]
  inhibition: 12%
MDA-MB-361 [20]
  Activity: 12%
[21]
  inhibition: 13%
